Our source for the MIC, IC50 and Activity values is ChEMBL document CHEMBL5584300, “Bioinformatic Approaches Identify Hybrid Antibiotics against Tuberculosis via d-Amino Acid-Activating Adenylation Domains from Cordyceps militaris” (J Nat Prod, 2024).

The test system of series [1] is Staphylococcus aureus. The series is described as follows: Antibacterial activity against methicillin-resistant Staphylococcus aureus ATCC 6538 assessed as reduction in microbial growth incubated for 20 hrs by CLSI based broth microdilution method. The class given is functional. In general terms: Dilution methods test growth across graded concentrations, often in twofold steps.

The subject of series [2] is Staphylococcus aureus. The series is described as follows: Antibacterial activity against Staphylococcus aureus ATCC 25923 assessed as reduction in microbial growth incubated for 20 hrs by CLSI based broth microdilution method. The class given is functional.
Series [3] deals with Staphylococcus aureus. The series is described as follows: Antibacterial activity against methicillin-resistant Staphylococcus aureus ATCC 43300 assessed as reduction in microbial growth incubated for 20 hrs by CLSI based broth microdilution method. The class given is functional.
Series [4] concerns Staphylococcus aureus. The series is described as follows: Antibacterial activity against Staphylococcus aureus ATCC 6538P assessed as reduction in microbial growth incubated for 20 hrs by CLSI based broth microdilution method. The class given is functional.
Another series has as its system Bacillus subtilis. Description: Antibacterial activity against Bacillus subtilis ATCC 9372 assessed as reduction in microbial growth incubated for 20 hrs by CLSI based broth microdilution method. The class given is functional.
Series [5] relates to Enterococcus faecalis. Description: Antibacterial activity against Enterococcus faecalis ATCC 29212 assessed as reduction in microbial growth incubated for 20 hrs by CLSI based broth microdilution method. The class given is functional.
Series [6] deals with Enterococcus faecalis. The series is described as follows: Antibacterial activity against vancomycin-resistant Enterococcus faecalis ATCC 51299 assessed as reduction in microbial growth incubated for 20 hrs by CLSI based broth microdilution method. The class given is functional.
For another series, the system named is Escherichia coli. The series is described as follows: Antibacterial activity against Escherichia coli ATCC 25922 assessed as reduction in microbial growth incubated for 20 hrs by CLSI based broth microdilution method. The class given is functional.
Series [7] deals with Mycobacterium tuberculosis. The series is described as follows: Antitubercular activity against Mycobacterium tuberculosis H37Rv ATCC 27294 assessed as reduction in microbial growth incubated for 6 days under aerobic condition by microplate Alamar Blue assay. The class given is functional. The following applies: H37Rv ATCC 27294, 144 h, time 6 day. A general note: The colour change of resazurin is a common sign of viable cells or microbes.

Series [8] concerns Mycobacterium tuberculosis. Description: Antitubercular activity against Mycobacterium tuberculosis H37Rv ATCC 27294 assessed as reduction in microbial growth incubated for 6 days under anaerobic condition by microplate Alamar Blue assay. The class given is functional. The following applies: H37Rv ATCC 27294, 144 h, time 6 day.
In series [9] the test system is Mycolicibacterium smegmatis. The series is described as follows: Antitubercular activity against Mycobacterium smegmatis mc2 155 assessed as reduction in microbial growth incubated for […] by CLSI based broth microdilution method. The class given is functional.
A short description of series [10]: Cytotoxicity against human DLD-1 cells assessed as reduction in cell viability incubated for 48 hrs by sulforhodamine B assay. The class given is toxicity, cell-based.
The nature of series [11]: Cytotoxicity against human Hep3B cells assessed as reduction in cell viability incubated for 48 hrs by sulforhodamine B assay. The class given is toxicity, cell-based, Hep 3B2.
The nature of series [12]: Cytotoxicity against human HepG2 cells assessed as reduction in cell viability incubated for 48 hrs by sulforhodamine B assay. The class given is toxicity, cell-based. (Sulforhodamine B stains cellular protein and so reports cell mass.)
Series [13] is described as follows: Cytotoxicity against human HGC-27 cells assessed as reduction in cell viability incubated for 48 hrs by sulforhodamine B assay. The class given is toxicity, cell-based.
The test system of series [14] is Mycobacterium tuberculosis. The series is described as follows: Bactericidal activity against Mycobacterium tuberculosis H37Rv ATCC 27294 assessed as reduction in bacterial count at 16 time MIC by time kill assay. The class given is functional, organism-based. The following applies: time 2-10 day, TDE = time-dependent effect.
Series [15] relates to Mycobacterium tuberculosis. The series is described as follows: Bactericidal activity against Mycobacterium tuberculosis H37Rv ATCC 27294 expressing pFCA-luxAB assessed as reduction in bacterial count at 16 times MIC preincubated for 10 days under hypoxic condition followed by aerobic condition for 28 hrs by LORA. The following applies: time 268.0 hrs. The class given is functional, organism-based.

In series [16] the test system is Mycobacterium tuberculosis. Description: Antitubercular activity against Mycobacterium tuberculosis H37Rv ATCC 27294 infected in BALB/c mouse assessed as reduction in bacterial count measured after 4 weeks. The class given is functional, organism-based. Particulars: dose 160-640 mg/kg.
Series [17] has as its system Mycobacterium tuberculosis. The series is described as follows: Antitubercular activity against Mycobacterium tuberculosis H37Rv ATCC 27294 infected in BALB/c mouse assessed as reduction in bacterial count at 10 to 40 mg/kg measured after 4 weeks. The class given is functional, organism-based. Particulars: dose 10-40 mg/kg.
In series [18] the test system is Mycobacterium tuberculosis. Description: Antitubercular activity against Mycobacterium tuberculosis H37Rv ATCC 27294 infected in BALB/c mouse assessed as reduction in bacterial count at 80 mg/kg measured after 4 weeks relative to control. The class given is functional. Also on record: scale not given: the % may be the effect or the level left.
Series [19] has as its system Mycobacterium tuberculosis. The series is described as follows: Antitubercular activity against Mycobacterium tuberculosis H37Rv ATCC 27294 infected in BALB/c mouse assessed as log reduction in lung at 160 mg/kg measured after 4 weeks. The class given is functional.
Series [20] has as its system Mycobacterium tuberculosis. The series is described as follows: Antitubercular activity against Mycobacterium tuberculosis H37Rv ATCC 27294 infected in BALB/c mouse chronic model assessed as log reduction in lung at 320 mg/kg drug administered twice daily after 28 days post infection and measured after 4 weeks. The class given is functional.
In series [21] the test system is Mycobacterium tuberculosis. The series is described as follows: Antitubercular activity against Mycobacterium tuberculosis H37Rv ATCC 27294 assessed as reduction in microbial growth incubated for 6 days by microplate Alamar Blue assay. The class given is functional. Particulars: H37Rv ATCC 27294, 144 h, time 6 day.
The test system of series [22] is Mycobacterium tuberculosis. Description: Antitubercular activity against Mycobacterium tuberculosis H37Rv ATCC 27294 infected in BALB/c mouse assessed as log reduction in lung at 10 mg/kg measured after 4 weeks. The class given is functional.
Series [23] concerns Mycobacterium tuberculosis. The series is described as follows: Antitubercular activity against Mycobacterium tuberculosis H37Rv ATCC 27294 infected in BALB/c mouse chronic model assessed as log reduction in lung at 10 mg/kg drug administered after 28 days post infection and measured after 4 weeks. The class given is functional.
For series [24], the system named is Mycobacterium tuberculosis. The series is described as follows: Antitubercular activity against Mycobacterium tuberculosis H37Rv ATCC 27294 infected in BALB/c mouse assessed as reduction in bacterial count in lung at 10 mg/kg measured after 4 weeks. The class given is functional, organism-based.

Values after ≈ are worked out from the molar mass of the structure shown. Active and inactive are the calls of the source. The rule behind the calls is not given here.

Usually MIC stands for the lowest concentration found to suppress growth. The term IC50 denotes the midpoint of a concentration-inhibition curve. Consider `CC1=C[C@H]2C[C@@H](C)CC[C@]2(C)[C@@](C)(C(=O)C2=C(O)[C@@H](CO)N(C)C2=O)[C@H]1/C=C/C=C/C=C/C[C@@H](C)O`, for which the MIC was determined as 4 µg/mL in the series on Staphylococcus aureus [1]; 8 µg/mL in the series on Staphylococcus aureus [2]; 4 µg/mL in the series on Staphylococcus aureus [3]; 8 µg/mL in the series on Staphylococcus aureus [4]; 8 µg/mL in the series on Bacillus subtilis; 4 µg/mL in the series with Enterococcus faecalis [5]. In addition, the MIC in the series on Enterococcus faecalis [6] was 8 µg/mL; in the series on Escherichia coli it was > 64 µg/mL; in [7], 0.016 µg/mL; in series [8], > 64 µg/mL; in series [9] it was 0.25 µg/mL. Besides, the half-inhibitory concentration (IC50) at 48 h in series [10], in [11], in [12] and in [13] was > 64 µg/mL each time. The Activity result in series [14] is “Tde”; in series [16], “Dose-Dependent Effect”; in series [17], “Dose-Dependent Effect”; in series [18], 100%; in [19] it was 2 log10CFU; in series [20] it was 2.3 log10CFU. Further, the result in series [15] was inactive.

On to `C/C=C/C=C/[C@H]1C(C)=C[C@H]2C[C@@H](C)CC[C@@H]2[C@@]1(C)/C(O)=C1/C(=O)[C@@H](CO)N(C)C1=O`, for which the MIC in series [21] was determined as 16 µg/mL.

For `C/C=C/[C@@H]1C=C[C@@H]2C[C@H](C)CC[C@H]2[C@]1(C)/C(O)=C1/C(=O)[C@H](CO)N(C)C1=O`, in [21], the MIC is > 64 µg/mL.

With `CC1=C[C@@H]2C[C@@H](C)CC[C@]2(C)[C@@](C)(C(=O)C2=C(O)[C@@H](CO)NC2=O)[C@H]1/C=C/C=C/C=C/C[C@@H](C)O`, the results for the minimum inhibitory concentration (MIC) in series [7], in [8] and in series [9] were 2 µg/mL, > 64 µg/mL and > 64 µg/mL, respectively.

Take `CC1=C[C@H]2C[C@@H](C)CC[C@@H]2[C@@](C)(C(=O)C2=C(O)[C@H](CO)N(C)C2=O)[C@H]1/C=C/C=C/C=C/C[C@@H](C)O`: the minimum inhibitory concentration (MIC) was 1 µg/mL in series [7], > 64 µg/mL in series [8] and > 64 µg/mL in series [9].

Consider `NNC(=O)c1ccncc1` [ISONIAZID], for which the values for the Activity in series [22] and in series [23] were 2.5 log10CFU and 3 log10CFU, respectively.

In the case of `CO[C@H]1/C=C/O[C@@]2(C)Oc3c(C)c(O)c4c(O)c(c(/C=N/N5CCN(C)CC5)c(O)c4c3C2=O)NC(=O)/C(C)=C\C=C\[C@H](C)[C@H](O)[C@@H](C)[C@@H](O)[C@@H](C)[C@H](OC(C)=O)[C@@H]1C` [RIFAMPIN], the minimal inhibitory concentration (MIC) in series [7] is 0.25 µg/mL; in series [8], > 64 µg/mL; in series [9] it was 16 µg/mL; in series [21], 0.25 µg/mL. The result in series [24] was inactive. Further, the Activity in series [23] amounted to 3 log10CFU.

For the molecule `CC1=C[C@H]2C[C@@H](C)CC[C@]2(C)[C@@](C)(C(=O)C2=C(O)[C@@H](CO)NC2=O)[C@H]1/C=C/C=C/C=C/C[C@@H](C)O`, the minimum inhibitory concentration (MIC) was 0.5 µg/mL in series [7], > 64 µg/mL in [8] and > 64 µg/mL in series [9].

Regarding `CC(=O)O[C@H]1C(=O)[C@@]2(C)[C@H]([C@H](OC(=O)c3ccccc3)[C@]3(O)C[C@H](OC(=O)[C@H](O)[C@@H](NC(=O)c4ccccc4)c4ccccc4)C(C)=C1C3(C)C)[C@]1(OC(C)=O)CO[C@@H]1C[C@@H]2O` [PACLITAXEL], the figures for the IC50 at 48 h in series [10], in [12] and in [13] were 0.031 µg/mL (≈ 0.0363 µM), 0.016 µg/mL (≈ 0.0187 µM) and 0.008 µg/mL (≈ 0.00937 µM), respectively.

Take `CC1(C)S[C@@H]2[C@H](NC(=O)[C@H](N)c3ccccc3)C(=O)N2[C@H]1C(=O)O` [AMPICILLIN]: the minimal inhibitory concentration (MIC) is 2 µg/mL in the series on Staphylococcus aureus [1]; 4 µg/mL in the series with Staphylococcus aureus [2]; > 64 µg/mL with Staphylococcus aureus [3]; > 64 µg/mL in the series with Staphylococcus aureus [4]; 4 µg/mL in the series on Bacillus subtilis; 2 µg/mL in the series on Enterococcus faecalis [5]. Besides, the minimum inhibitory concentration (MIC) in the series with Enterococcus faecalis [6] was determined as 4 µg/mL.
